According to US4608365A, “Treatment of neurologic functions” (priority 1984, dated 1986):

Columns and labels:
[1] = test system: ALS patients; details: human, in vivo
Description: Five ALS patients (men, women, duration of disease one, one, three and one-half, four and three years, respectively) were given TRH as a continuous intravenous infusion. […] For about one-fifth of the days, the patients were given saline placebo.
It should be noted that the TRH administered in Example I was infused at a rate of up to 200 mg. over a twenty-four hour period. In terms of presence in the body at any one time, this amounted to an infusion rate of about 0.14 mg/minute ([…] body weight based upon the average patient weight of 70 kg). Accordingly, and in view of the significant results shown in Examples II-VIII, it appears that an elevated initial dose and consequently a blood level peak, providing a pulse-effect, is required each time TRH is given. Specifically, in Example IV, intravenous infusion at one milligram per minute (over seven times the infusion rate in Example I) produced an improvement of strength in several muscle functions. […] In Example IV, an acute increase in strength occurred at 4.7 mg/minute intravenously.
There were several control aspects of the TRH studies. […] The patients given subcutaneous TRH had treatments interspersed with saline placebo injections. […] The time course of response was not known before the study and, in fact, it was expected that the onset would be later and the duration of response longer than was actually found. […]

[2] = human, in vivo
Description: In three ALS patients given 25 mg TRH intravenously during 6 minutes, concommitant TRH values were measured in the plasma and serum at 0, 6 and 12 minutes.

[3] = test system: ALS patients; experiment: Transient autorefractory effect, intravenous TRH in ALS patients; type: in vivo, human
Description: To analyze this phenomenon, four ALS patients were given six-minute intravenous pulses of […] of TRH at ten to twenty minute intervals. Each of the first one to five "priming doses" produced or, sustained dramatically-increased strength in responsive muscles. Subsequent identical pulses precipitated an equally dramatic interruption within 18-30 seconds causing rapid loss of all improvement, back to baseline strength or below, i.e., "autorefractoriness." Some weakness of clinically normal limb muscles also sometimes occurred. Eleven autorefractory states of the four patients lasted 12-100 minutes (median 68 minutes) after initial administration of TRH, until spontaneous recovery re-achieved maximal strength benefit. During recovery, strength fluctuated. […] When the autorefractory state first developed, with loss of strength to baseline, increasing the infusion to 1.5 mg/minute rapidly overcame the "block" within one minute, associated with increased strength. Within another minute, complete autorefractoriness reappeared. Raising the rate to 2 mg/minute again reversed this blockage, with strength increased to maximum in thirty seconds, but autorefractoriness reappeared in 1.5 minutes. […] Strength fluctuated between complete blockage and partial reversal for the next 71 minutes until the autorefractoriness fully reversed itself at 81 minutes.

[4] = test system: ALS patients; type: in vivo, human
Description: Nine fasting ALS patients (seven men, and two women; duration of disease, two, three, five-sixths of a year, five-sixths of a year, two and a half, four, one, one and four years, respectively) were given intravenous TRH at rates of 0.5-8 mg/minute, total 500 mg during two to five hours in one day, for one or two days. Due to the fact that the effects during the second day resembled those on the first day in the first two patients (men) and because supplies of TRH were limited, […] were treated for one day only. Before and throughout TRH administration, motor functions were repeatedly examined, the tests being selected according to the specific clinical involvement in each patient. Testing in all patients was videotaped. […] For example, muscles (such as biceps, triceps, deltoid, iliopsoas, or peroneal) that could be overcome easily by one finger before TRH administration became completely resistant to the full force of the examiner's hand (i.e., became normal or virtually normal). In one person, thumb abduction and finger-thumb pincer movement, easily overcome before the infusion of TRH, became normal. […] Speech clarity and volume improved. Spasticity of the legs lessened, as evidenced by easier, more rapid and "looser" bicycling-like movement, heel-shin movement and heel-knee tapping of the legs, as well as more agile walking.
As an extension of the Example III and IV studies, a total of twenty-three patients (including those of Examples II and IV) were given 156 intravenous dose-days total.
There were several control aspects of the TRH studies. […] The patients given subcutaneous TRH had treatments interspersed with saline placebo injections. […] The time course of response was not known before the study and, in fact, it was expected that the onset would be later and the duration of response longer than was actually found. Different patients responded to different doses of TRH, and the sex difference in response (woman apparently less responsive) was not expected. […] There were three observers, one unaware of the infusion status. In addition, clinical examinations of all patients of Examples III-VII were videotaped and later reviewed by several observers.

[5] = test system: infant with infantile spinal muscular atrophy; design: species or system human; details: in vivo
[6] = test system: non-ALS person with chronic juvenile proximal spinal muscular atrophy; type: in vivo, human
[7] = test system: tissue-cultured fetal rat lower motor neurons; experiment: Trophic-like effect on tissue-cultured fetal rat lower motor neurons (cholineactyltransferase); type: cell-based; details: chronic
From the text: "Transmitter-like," as used herein, includes not only direct excitatory (or facilitatory) and inhibitory actions on the lower motor neurons, but also any action on lower motor neurons or afferents thereto that results indirectly in such an effect. That excitatory TRH action, increasing patients' strength, is either directly excitatory or facilitatory and perhaps analogous to the lower motor neuron facilitation of glutamate excitation noted with TRH micropipetted into spinal cords of normal amphibia (Nicoll, J. Pharmac. Exp. Therap. 1978; 207: 817-24; Phillis et al., Can. J. Physiol. Pharmacol. 1979; 57: 887-99 and rodents, White Abstr. Soc. Neurosci 1983, 9: 714, and in other animal studies. An inhibitory transmitter-like action seems likely to underlie both the rapid-onset autorefractory phenomenon and the possibly related clinical reduction of spasticity, spasms and cramps. A tachyphalaxis or desensitization phenomenon, perhaps similar to the clinical autorefractory state, has been noted in animal lower motor neurons with larger amounts of TRH micropipetted into the spinal cord (Nicoll and Phillis, et al., supra).

[8] = eleven autorefractory states of four patients

transient rise in serum aminotransferases [1]: has not been found
cerebrospinal fluid TRH level [2]: ≤ 5368 pg/mL
enhancement of cholineactyltransferase [7]: 17 fold
SMILES: NC(=O)[C@@H]1CCCN1C(=O)[C@H](Cc1cnc[nH]1)NC(=O)[C@@H]1CCC(=O)N1 [TRH, L-pyroglutamyl-L-histidyl-L-prolinamide]
onset of waning-waxing of TRH-increased lower motor neuron strength ([3]; continuous i.v. 1-8 mg/minute, all patients): as early as three to thirty minutes
duration of autorefractory states [3, 8]: 12 to 100 min
median duration of autorefractory states [3, 8]: 68 min
partial reversal of autorefractoriness after TRH was stopped ([3]; one ALS patient): partially reversed at ten minutes
time to full reversal of autorefractoriness after TRH was stopped ([3]; one ALS patient): 81 min
strength ([3]; one ALS patient, 1 mg/minute continuous i.v.): markedly increased their strength
strength after raising the rate during autorefractoriness ([3]; one ALS patient, 2.5 mg/minute for nine minutes): failed to increase strength
time to interruption (loss of all improvement) after subsequent identical pulses ([3]; six-minute i.v. pulses of 4.17 mg/minute at ten to twenty minute intervals, four ALS patients): 18 to 30 s
intravenous rate at which striking improvement was shown ([4]; Examples II and III (summary)): 2 mg/min
minimum intravenous infusion rate per body weight ([4]; based on average patient weight of 70 kilograms): ≥ 14.3 μg/minute/kg of body weight
benefit and side-effects in the two women ([4]; i.v. 0.5-8 mg/minute): much less benefit and many fewer side-effects than the men
quantitative response of women relative to men ([4]; i.v. 0.5-8 mg/minute): resembled those of men on one-half to one-fourth of the TRH dosage
ankle clonus ([4]; i.v. 2-8 mg/minute): decreased or disappeared
brisk tendon reflexes ([4]; i.v. 2-8 mg/minute): diminished not at all or only slightly
extensor plantar (Babinski) responses ([4]; i.v. 2-8 mg/minute): improved, becoming neutral or normal flexor
fasciculations ([4]; i.v. 2-8 mg/minute): appeared to be unchanged
spasticity of the legs ([4]; i.v. 2-8 mg/minute): lessened
speech clarity and volume ([4]; i.v. 2-8 mg/minute): improved
vital capacity ([4]; i.v. 2-8 mg/minute): increased, by as much as one liter
residual improvement after the end of the infusion ([4]; i.v., total 500 mg): some slight improvement still evident twenty hours after the end of the infusion
time improvements were sustained after the infusion ([4]; i.v., total 500 mg during two to five hours): one-half to one hour afterwards
improvement of muscle weakness and spasticity ([4]; men, i.v. 2-8 mg/minute, in some areas of involvement): striking improvement
duration of full benefit after intravenous infusions ([4]; summary): up to one hour
safety and benefit on strength [5]: safety without side-effects and possible benefit on strength
muscle strength ([6]; 1-8 mg/minute i.v., 500 mg total, several muscle functions): slight to moderate improvement of strength
sensitivity to TRH relative to the men ([6]; i.v.): one-fourth to one-eighth as sensitive
intravenous rate at which an acute increase in strength occurred ([6]; printed as Example IV (summary)): 4.7 mg/min
